The nature of data set [1]: Therapeutic index (CC50/MIC) was determined.
Data set [2] has as its system Candida albicans. Put plainly: Minimum inhibitory concentration against Candida albicans. The data set is classed as functional.
For data set [3], the system named is HEp-2. The data set is described as follows: Cytotoxicity was evaluated against Hep-2 cells in vitro. The data set is classed as functional. Particulars: Homo sapiens.
Data set [4] concerns Nakaseomyces glabratus. The data set is described as follows: Minimum inhibitory concentration against Candida glabrata. It is filed as functional.
Data set [5] deals with Cryptococcus neoformans. The data set is described as follows: In vitro minimum inhibitory concentration against […].

The values that follow come from ChEMBL document CHEMBL1135251, “Oxime derivatives of sordaricin as potent antifungal agents” (Bioorg Med Chem Lett, 2002).

In brackets after ≈: the same amount, converted by molar mass.

The molecule `CCOCCO/N=C/C12C[C@@H]3[C@H](C)CC[C@H]3C3(C=O)CC1C=C(C(C)C)[C@@]23C(=O)O` returned a Therapeutic index in data set [1] of 1.4. The MIC in data set [2] and in data set [4] was 16 µg/mL (≈ 38.3 µM) in each case. Besides, the midpoint of cytotoxicity in data set [3], the CC50, lay at 22 µg/mL (≈ 52.7 µM).

Consider `CCCCOC1CC(C23C[C@@H]4[C@H](C)CC[C@H]4C4(C=O)CC2C=C(C(C)C)[C@@]34C(=O)O)=NO1` (stereo not given in full), for which the MIC in data set [2] came to 1 µg/mL (≈ 2.25 µM); in data set [4], 8 µg/mL (≈ 18 µM).

Take `CC(C)CCC1CC(C23C[C@@H]4[C@H](C)CC[C@H]4C4(C=O)CC2C=C(C(C)C)[C@@]34C(=O)O)=NO1` (stereo not given in full): the MIC in data set [2] worked out at 1 µg/mL (≈ 2.26 µM); in data set [4], 4 µg/mL (≈ 9.06 µM).

`CC(C)=CCO/N=C/C12C[C@@H]3[C@H](C)CC[C@H]3C3(C=O)CC1C=C(C(C)C)[C@@]23C(=O)O` gave a Therapeutic index in data set [1] of 4.5. Besides, the MIC in data set [2] and in data set [4] was 1 µg/mL (≈ 2.42 µM) each time. Further, in data set [3], the CC50 amounted to 4.5 µg/mL (≈ 10.9 µM).

The molecule `COC1C(O)[C@H](O)[C@H](OC[C@@]23C[C@@H]4[C@H](C)CC[C@H]4[C@@]4(C=O)CC2C=C(C(C)C)[C@@]34C(=O)O)O[C@@H]1C` (single isomer, unassigned) [SORDARIN] displayed a Therapeutic index in data set [1] of 10. In addition, the values for the MIC in data set [2] and in data set [4] were 16 µg/mL (≈ 32.5 µM) and over 128 µg/mL, respectively. Further, the CC50 in data set [3] stood at 167 µg/mL (≈ 339 µM).

For `CC(C)C1=CC2CC3(C=O)[C@@H]4CC[C@@H](C)[C@H]4CC2(C2=NOC4C2CCN4Cc2ccccc2)[C@]13C(=O)O` (stereo not given in full), the MIC in data set [2] and in data set [4] was over 128 µg/mL in each case.

In data set [1], `CCCCCO/N=C/C12C[C@@H]3[C@H](C)CC[C@H]3C3(C=O)CC1C=C(C(C)C)[C@@]23C(=O)O` gave a Therapeutic index of 92. Besides, the MIC was determined as 64 µg/mL (≈ 154 µM) in data set [5], 0.06 µg/mL (≈ 0.144 µM) in data set [2] and 0.06 µg/mL (≈ 0.144 µM) in data set [4]. In addition, the CC50 in data set [3] stood at 5.5 µg/mL (≈ 13.2 µM).

Take `Cc1noc(C)c1CO/N=C/C12C[C@@H]3[C@H](C)CC[C@H]3C3(C=O)CC1C=C(C(C)C)[C@@]23C(=O)O`: the values for the MIC in data set [2] and in data set [4] were over 128 µg/mL and 128 µg/mL (≈ 282 µM), respectively.

As for `CC[C@@H](C)CO/N=C/C12C[C@@H]3[C@H](C)CC[C@H]3C3(C=O)CC1C=C(C(C)C)[C@@]23C(=O)O`, the Therapeutic index in data set [1] was 11. For the same molecule, the MIC is 0.25 µg/mL (≈ 0.602 µM) in data set [2] and 0.5 µg/mL (≈ 1.2 µM) in data set [4]. In addition, in data set [3], the CC50 amounted to 2.7 µg/mL (≈ 6.5 µM).

Regarding `CC#CCO/N=C/C12C[C@@H]3[C@H](C)CC[C@H]3C3(C=O)CC1C=C(C(C)C)[C@@]23C(=O)O`, the Therapeutic index in data set [1] stood at 2. Also, the MIC in data set [2] stood at 8 µg/mL (≈ 20.1 µM); in data set [4] it was 32 µg/mL (≈ 80.5 µM). The same molecule registered a CC50 in data set [3] of 16 µg/mL (≈ 40.3 µM).

The molecule `CC(C)C1=CC2CC3(C=O)[C@@H]4CC[C@@H](C)[C@H]4CC2(/C=N/OCc2ccccc2Cl)[C@]13C(=O)O` yielded a Therapeutic index in data set [1] of 0.7. In addition, the MIC worked out at 2 µg/mL (≈ 4.26 µM) in data set [2] and 8 µg/mL (≈ 17 µM) in data set [4]. The same molecule came in with a CC50 in data set [3] of 1.4 µg/mL (≈ 2.98 µM).

On to `CC(C)C1=CC2CC3(C=O)[C@@H]4CC[C@@H](C)[C@H]4CC2(C2=NOC(CC(C)(C)C)C2)[C@]13C(=O)O` (stereo not given in full), for which the minimum inhibitory concentration (MIC) amounted to 2 µg/mL (≈ 4.53 µM) in data set [2] and 1 µg/mL (≈ 2.26 µM) in data set [4].

For the molecule `CC(C)C1=CC2CC3(C=O)[C@@H]4CC[C@@H](C)[C@H]4CC2(C2=NOC(c4ccccc4)C2)[C@]13C(=O)O` (stereo not given in full), the MIC in data set [2] came out at 16 µg/mL (≈ 35.7 µM); in data set [4], 2 µg/mL (≈ 4.47 µM).

Regarding `CC(C)C1=CC2CC3(C=O)[C@@H]4CC[C@@H](C)[C@H]4CC2(C2=NOC(C4CCCCC4)C2)[C@]13C(=O)O` (stereo not given in full), the MIC in data set [2] and in data set [4] was 2 µg/mL (≈ 4.41 µM) each time.

As to `CCCCC1CC(C23C[C@@H]4[C@H](C)CC[C@H]4C4(C=O)CC2C=C(C(C)C)[C@@]34C(=O)O)=NO1` (stereo not given in full), the MIC in data set [2] and in data set [4] was 2 µg/mL (≈ 4.68 µM) throughout.

Take `CC(C)C1=CC2CC3(C=O)[C@@H]4CC[C@@H](C)[C@H]4CC2(c2cc(CO)on2)[C@]13C(=O)O`: the MIC in data set [2] and in data set [4] was over 128 µg/mL each time.

On to `CC(C)C1=CC2CC3(C=O)[C@@H]4CC[C@@H](C)[C@H]4CC2(/C=N/OCC2CCCCC2)[C@]13C(=O)O`, for which the Therapeutic index in data set [1] worked out at 2.4. The minimum inhibitory concentration (MIC) is 0.25 µg/mL (≈ 0.566 µM) in data set [2] and 1 µg/mL (≈ 2.26 µM) in data set [4]. This molecule registered a CC50 in data set [3] of 0.6 µg/mL (≈ 1.36 µM).

In the case of `COCCOCCO/N=C/C12C[C@@H]3[C@H](C)CC[C@H]3C3(C=O)CC1C=C(C(C)C)[C@@]23C(=O)O`, the Therapeutic index in data set [1] stood at 5.7. For the same molecule, the MIC is 8 µg/mL (≈ 17.9 µM) in data set [2] and 128 µg/mL (≈ 286 µM) in data set [4]. The molecule further came in with a CC50 in data set [3] of 46 µg/mL (≈ 103 µM).

Regarding `CC(C)C1=CC2CC3(C=O)[C@@H]4CC[C@@H](C)[C@H]4CC2(C2=NOC(CO)C2)[C@]13C(=O)O` (stereo not given in full), the MIC in data set [2] and in data set [4] was over 128 µg/mL each time.

With `CC(C)C1=CC2CC3(C=O)[C@@H]4CC[C@@H](C)[C@H]4CC2(/C=N/OC2CCCCO2)[C@]13C(=O)O` (stereo not given in full), in data set [1], the Therapeutic index came to 66. The MIC in data set [2] was 0.5 µg/mL (≈ 1.16 µM); in data set [4], 1 µg/mL (≈ 2.33 µM). For the same molecule, the CC50 in data set [3] was found to be 33 µg/mL (≈ 76.8 µM).

Take `CC(C)C1=CC2CC3(C=O)[C@@H]4CC[C@@H](C)[C@H]4CC2(C2=NOC(CN4CCOCC4)C2)[C@]13C(=O)O` (stereo not given in full): the results for the MIC in data set [2] and in data set [4] were 16 µg/mL (≈ 34 µM) and over 128 µg/mL, respectively.

On to `CC(C)C1=CC2CC3(C=O)[C@@H]4CC[C@@H](C)[C@H]4CC2(/C=N/OCC2CCCCO2)[C@]13C(=O)O` (stereo not given in full), for which, in data set [1], the Therapeutic index was 4.5. In addition, the MIC in data set [2] was determined as 2 µg/mL (≈ 4.51 µM); in data set [4] it was 8 µg/mL (≈ 18 µM). Also, half-maximal cytotoxicity in data set [3] (CC50) was put at 9 µg/mL (≈ 20.3 µM).

`Cc1ccccc1CO/N=C/C12C[C@@H]3[C@H](C)CC[C@H]3C3(C=O)CC1C=C(C(C)C)[C@@]23C(=O)O`: the MIC in data set [2] and in data set [4] was 16 µg/mL (≈ 35.6 µM) in each case.

As to `CC(C)C1=CC2CC3(C=O)[C@@H]4CC[C@@H](C)[C@H]4CC2(c2cc(-c4ccccc4)on2)[C@]13C(=O)O`, the MIC worked out at 8 µg/mL (≈ 18 µM) in data set [2] and 0.25 µg/mL (≈ 0.561 µM) in data set [4].

On to `CC(C)C1=CC2CC3(C=O)[C@@H]4CC[C@@H](C)[C@H]4CC2(C2=NOC4CCCCC24)[C@]13C(=O)O` (stereo not given in full), for which the MIC in data set [2] is over 128 µg/mL; in data set [4], 1 µg/mL (≈ 2.35 µM).

In the case of `CC(C)C1=CC2CC3(C=O)[C@@H]4CC[C@@H](C)[C@H]4CC2(CO)[C@]13C(=O)O`, the MIC in data set [2] and in data set [4] was over 128 µg/mL throughout.

Molecule `CC(C)CO/N=C/C12C[C@@H]3[C@H](C)CC[C@H]3C3(C=O)CC1C=C(C(C)C)[C@@]23C(=O)O` registered a Therapeutic index in data set [1] of 70. The minimum inhibitory concentration (MIC) in data set [2] and in data set [4] was 0.5 µg/mL (≈ 1.25 µM) in each case. Besides, half-maximal cytotoxicity in data set [3] (CC50) was put at 35 µg/mL (≈ 87.2 µM).

In the case of `CCOC(=O)C1CC(C23C[C@@H]4[C@H](C)CC[C@H]4C4(C=O)CC2C=C(C(C)C)[C@@]34C(=O)O)=NO1` (stereo not given in full), the MIC in data set [2] was found to be 8 µg/mL (≈ 18 µM); in data set [4], 4 µg/mL (≈ 9.02 µM).

On to `CC(C)CCO/N=C/C12C[C@@H]3[C@H](C)CC[C@H]3C3(C=O)CC1C=C(C(C)C)[C@@]23C(=O)O`, for which the Therapeutic index in data set [1] is 8. In addition, the figures for the MIC in data set [2] and in data set [4] were 0.5 µg/mL (≈ 1.2 µM) and 1 µg/mL (≈ 2.41 µM), respectively. The molecule further registered a CC50 in data set [3] of 4 µg/mL (≈ 9.63 µM).

For `CC(C)C1=CC2CC3(C=O)[C@@H]4CC[C@@H](C)[C@H]4CC2(C2=NOC(CC#N)C2)[C@]13C(=O)O` (stereo not given in full), the MIC in data set [2] and in data set [4] was 128 µg/mL (≈ 312 µM) throughout.

`CCC(C)(C)CC1CC(C23C[C@@H]4[C@H](C)CC[C@H]4C4(C=O)CC2C=C(C(C)C)[C@@]34C(=O)O)=NO1` (stereo not given in full): the MIC in data set [2] is 4 µg/mL (≈ 8.78 µM); in data set [4] it was 1 µg/mL (≈ 2.19 µM).

The molecule `CC(C)C1=CC2CC3(C=O)[C@@H]4CC[C@@H](C)[C@H]4CC2(/C=N/OCCCC(F)(F)F)[C@]13C(=O)O` showed a Therapeutic index in data set [1] of 1.9. The MIC in data set [2] was found to be 1 µg/mL (≈ 2.2 µM); in data set [4], 4 µg/mL (≈ 8.78 µM). This molecule also gave a CC50 in data set [3] of 1.9 µg/mL (≈ 4.17 µM).

For the molecule `CC(C)C1=CC2CC3(C=O)[C@@H]4CC[C@@H](C)[C@H]4CC2(C2=NOC4OCCC24)[C@]13C(=O)O` (stereo not given in full), the MIC is over 128 µg/mL in data set [2] and 8 µg/mL (≈ 19.3 µM) in data set [4].

Usually MIC stands for the least concentration at which growth counts as inhibited. A high value points to weaker potency. What is called CC50 is the concentration giving 50% cytotoxicity.
